How the values were obtained:
Test in all cases: relative viability (nuclei count vs DMSO), 5 days (fraction); higher = more cells survive
Sorafenib + Dasatinib = compound: CNC(=O)c1cc(Oc2ccc(NC(=O)Nc3ccc(Cl)c(C(F)(F)F)c3)cc2)ccn1 [Sorafenib] + Cc1nc(Nc2ncc(C(=O)Nc3c(C)cccc3Cl)s2)cc(N2CCN(CCO)CC2)n1 [Dasatinib] (partner 0.075 µM)
Summary of the method: (§1)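 Relative viability equals treated-well nuclei counts divided by vehicle-well nuclei counts. Counts came from 4× images of lung cancer cell lines grown in 1536-well plates for 5 days after pin-tool dosing on the day after seeding. Dosing used one drug alone or a fixed anchor-drug dose plus five library-drug doses (not always all listed) in √10 steps, and values are medians of duplicate plates.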

Sorafenib + Palbociclib = compound: CNC(=O)c1cc(Oc2ccc(NC(=O)Nc3ccc(Cl)c(C(F)(F)F)c3)cc2)ccn1 [Sorafenib] + CC(=O)c1c(C)c2cnc(Nc3ccc(N4CCNCC4)cn3)nc2n(C2CCCC2)c1=O [Palbociclib] (partner 0.5 µM)
Summary of the method: as §1

Sorafenib + Decitabine = compound: CNC(=O)c1cc(Oc2ccc(NC(=O)Nc3ccc(Cl)c(C(F)(F)F)c3)cc2)ccn1 [Sorafenib] + Nc1ncn([C@H]2C[C@H](O)[C@@H](CO)O2)c(=O)n1 [Decitabine] (partner 2 µM)
Summary of the method: as §1

Sorafenib + Linsitinib = compound: CNC(=O)c1cc(Oc2ccc(NC(=O)Nc3ccc(Cl)c(C(F)(F)F)c3)cc2)ccn1 [Sorafenib] + C[C@]1(O)C[C@@H](c2nc(-c3ccc4ccc(-c5ccccc5)nc4c3)c3c(N)nccn32)C1 [Linsitinib] (partner 1 µM)
Summary of the method: as §1

Sorafenib + Tozasertib = compound: CNC(=O)c1cc(Oc2ccc(NC(=O)Nc3ccc(Cl)c(C(F)(F)F)c3)cc2)ccn1 [Sorafenib] + Cc1cc(Nc2cc(N3CCN(C)CC3)nc(Sc3ccc(NC(=O)C4CC4)cc3)n2)n[nH]1 [Tozasertib] (partner 0.1 µM)
Summary of the method: as §1

Cell Line	relative viability (Sorafenib + Dasatinib; first compound 0.08 µM)	relative viability (Sorafenib + Dasatinib; first compound 0.253 µM)	relative viability (Sorafenib + Dasatinib; first compound 2.53 µM)	relative viability (Sorafenib + Dasatinib; first compound 8 µM)	relative viability (Sorafenib + Palbociclib; first compound 0.08 µM)	relative viability (Sorafenib + Palbociclib; first compound 0.253 µM)	relative viability (Sorafenib + Palbociclib; first compound 2.53 µM)	relative viability (Sorafenib + Palbociclib; first compound 8 µM)	relative viability (Sorafenib + Decitabine; first compound 0.08 µM)	relative viability (Sorafenib + Decitabine; first compound 0.253 µM)	relative viability (Sorafenib + Decitabine; first compound 2.53 µM)	relative viability (Sorafenib + Decitabine; first compound 8 µM)	relative viability (Sorafenib + Linsitinib; first compound 0.08 µM)	relative viability (Sorafenib + Linsitinib; first compound 0.253 µM)	relative viability (Sorafenib + Linsitinib; first compound 2.53 µM)	relative viability (Sorafenib + Linsitinib; first compound 8 µM)	relative viability (Sorafenib + Tozasertib; first compound 0.08 µM)	relative viability (Sorafenib + Tozasertib; first compound 0.253 µM)	relative viability (Sorafenib + Tozasertib; first compound 2.53 µM)	relative viability (Sorafenib + Tozasertib; first compound 8 µM)
PC-14	0.302	0.256	0.276	0.185	0.62	0.512	0.518	0.158	0.22	0.177	0.225	0.156	1.03	0.96	0.918	0.756	0.588	0.555	0.593	0.577
RERF-LC-KJ	0.967	0.668	0.77	0.401	1.05	0.961	1.03	0.759	0.74	0.673	0.586	0.473	0.873	0.872	0.798	0.739	0.532	0.489	0.41	0.221
SK-LU-1	0.197	0.184	0.196	0.185	0.474	0.372	0.362	0.326	0.605	0.564	0.578	0.396	1.03	–	0.932	0.345	0.346	0.347	0.325	0.211
SK-MES-1	0.434	0.276	0.41	0.273	0.301	0.292	0.292	0.289	0.365	0.326	0.322	0.338	1.1	1.08	1	1.03	0.823	0.833	0.714	0.439
SW 1573	0.752	0.38	0.505	0.213	0.39	0.363	0.417	0.09	0.57	0.511	0.408	0.182	0.805	0.786	0.79	0.378	0.194	0.205	0.174	0.119
UMC-11	0.509	0.396	0.357	0.205	0.284	0.355	0.334	0.188	0.596	0.57	0.535	0.249	0.991	0.989	0.945	0.687	0.209	0.195	0.202	0.184

From the supplement of paper PMC10307832
